Laboratory results: paper PMC7671598, “Differences in the efficiency of 3-deazathiamine and oxythiamine pyrophosphates as inhibitors of pyruvate dehydrogenase complex and growth of HeLa cells in vitro” (Journal of Enzyme Inhibition and Medicinal Chemistry, 2020)

Biological target: T1, pyruvate dehydrogenase complex (PDHC)
T1 construct: gene PDHA1; native mitochondrial complex isolated from porcine heart; with PDHB (E1 beta) and the other subunits of the complex
Test: spectrophotometric PDHC kinetics at […] nm, Lineweaver-Burk, Ki from the shift of Km for TPP
Format: biochemical, Sus scrofa
Settings: read-out: Kinetic parameters / Ki

Ki [µM]	Structure (SMILES)
0.0026 ± 0.0009	Cc1ncc(Cc2csc(CCOP(=O)(O)OP(=O)(O)O)c2C)c(N)n1 [compound 15, 3-deazathiamine pyrophosphate]
0.025 ± 0.015	Cc1ncc(C[n+]2csc(CCOP(=O)(O)OP(=O)(O)O)c2C)c(O)n1 [compound 18, oxythiamine pyrophosphate]
